Our source for the Activity values is ChEMBL document CHEMBL2074235, “Transporter-mediated Drug Interactions” (Drug Metabol Pharmacokin, 2002).

This assay has as its target T1, Solute carrier family 15 member 1 (Homo sapiens) (UniProt P46059).
T1 sequence (whole entry): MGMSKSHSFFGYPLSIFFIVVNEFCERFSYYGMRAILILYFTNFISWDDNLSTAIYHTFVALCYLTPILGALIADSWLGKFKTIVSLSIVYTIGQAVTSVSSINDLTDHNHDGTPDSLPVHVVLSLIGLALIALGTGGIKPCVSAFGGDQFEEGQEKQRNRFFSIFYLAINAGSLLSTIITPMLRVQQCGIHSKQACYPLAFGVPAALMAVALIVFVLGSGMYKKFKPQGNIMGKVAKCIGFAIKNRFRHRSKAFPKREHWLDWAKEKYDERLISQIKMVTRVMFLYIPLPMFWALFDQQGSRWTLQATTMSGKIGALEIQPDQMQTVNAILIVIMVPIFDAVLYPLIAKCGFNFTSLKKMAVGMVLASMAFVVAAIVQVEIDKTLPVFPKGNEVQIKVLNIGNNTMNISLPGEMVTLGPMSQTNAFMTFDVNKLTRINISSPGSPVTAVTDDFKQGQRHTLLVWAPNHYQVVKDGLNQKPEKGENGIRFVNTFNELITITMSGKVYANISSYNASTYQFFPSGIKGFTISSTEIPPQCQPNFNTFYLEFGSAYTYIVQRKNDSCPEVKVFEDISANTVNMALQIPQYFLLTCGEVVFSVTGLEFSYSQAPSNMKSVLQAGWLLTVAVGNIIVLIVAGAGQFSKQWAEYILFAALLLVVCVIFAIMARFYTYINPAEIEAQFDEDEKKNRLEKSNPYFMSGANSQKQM
The experiment in a line: TP_TRANSPORTER: uptake in Xenopus laevis oocytes. Format: functional, cell-based. Particulars: Oocyte.

With `C=CC1=C(C(=O)O)N2C(=O)[C@@H](NC(=O)/C(=N\OCC(=O)O)c3csc(N)n3)[C@H]2SC1`, the Activity entry is “substrate [+]”. As to `C[C@H](N[C@@H](CCc1ccccc1)C(=O)O)C(=O)N1CCC[C@H]1C(=O)O`, the Activity result is “substrate [+]”. As to `CO/N=C(\C(=O)N[C@@H]1C(=O)N2C(C(=O)O)=CCS[C@H]12)c1csc(N)n1`, the Activity entry was “is not a substrate [-]”. In the case of `NCCC(=O)N[C@@H](Cc1c[nH]cn1)C(=O)O`, the Activity entry was “substrate [+]”. For the compound `NCCCC[C@H](N[C@@H](CCc1ccccc1)C(=O)O)C(=O)N1CCC[C@H]1C(=O)O`, the Activity entry was “is not a substrate [-]”. On to `CC1(C)S[C@@H]2[C@H](NC(=O)Cc3ccccc3)C(=O)N2[C@H]1C(=O)O`, for which the Activity result was “substrate [+]”. As to `CC1=C(C(=O)O)N2C(=O)[C@@H](NC(=O)[C@H](N)c3ccc(O)cc3)[C@H]2SC1`, the Activity entry is “substrate [+]”. Regarding `CCOC(=O)[C@H](CCc1ccccc1)N[C@H]1CS[C@H](c2cccs2)CN(CC(=O)O)C1=O`, the Activity result was “substrate [+]”. In the case of `Nc1nc(/C(=C/CC(=O)O)C(=O)N[C@@H]2C(=O)N3C(C(=O)O)=CCS[C@H]23)cs1`, the Activity entry was “substrate [+]”. With `O=C(O)CO/N=C(\C(=O)N[C@@H]1C(=O)N2C(C(=O)O)=CCS[C@H]12)c1cscn1`, the Activity entry was “substrate [+]”. The same measure for `O=C(O)CN1C[C@@H](c2cccs2)SC[C@H](N[C@@H](CCc2ccccc2)C(=O)O)C1=O`: “substrate [+]”; for `C[C@@H](O)[C@H]1C(=O)N2C(C(=O)O)=C([C@H]3CCCO3)S[C@H]12`: “is not a substrate [-]”; for `CCOC(=O)[C@H](CCc1ccccc1)N[C@@H](C)C(=O)N1CCC[C@H]1C(=O)O`: “substrate [+]”. The same measure for `C=CC1=C(C(=O)O)N2C(=O)[C@@H](NC(=O)/C(=N\O)c3csc(N)n3)[C@H]2SC1`: “substrate [+]”.
